Legend:
KIAA1199 mRNA [1] = conditions: stimulation with histamine
Experimental: Western blotting was performed through a standard method. In real-time PCR, total RNA was separated by use of RNeasy (Qiagen), and cDNA was synthesized by means of High Capacity cDNA Archive kit (Applied Biosystems, Foster City, Calif.). Real-time PCR was performed through TaqMan (registered trademark) technique and by means of an apparatus ABI Prism 7700 (Applied Biosystems, Foster City, Calif.).

[2] = test system: cultured normal human skin fibroblasts (Detroit551); test: [3H]HA decomposition assay using cultured normal human skin fibroblasts; type: cell-based; conditions: for decomposition of hyaluronic acid by cultured fibroblasts: exogenously added [3H]HA, substance added to the culture
Experimental: Normal human skin fibroblasts (Detroit 551, ATCC (American Type Culture Collection), HS-27, NHDF) were cultured in an Eagle's minimal essential medium (MEM) (MP Biomedicals, Solon, Ohio) supplemented with essential amino acids, 1 mM sodium pyruvate, and 10% (vol/vol) fetal bovine serum (FBS) (JRH Biosciences, Kansas). HEK293, COS-7 cells, and human synovial fibroblasts (TOYOBO) were maintained in a Dulbecco's modified Eagle's medium (Sigma) containing 10% fetal bovine serum, 100-units/mL penicillin, and 100-μg/mL streptomycin. Culturing was performed at 37° C. in a humidified atmosphere containing 5% CO2.
[^3H]-labeled hyaluronic acid ([^3H]HA) was prepared though a slightly modified method of Underhill, Toole, et al. (C. B. Underhill and B. P. Toole, Binding of hyaluronate to the surface of cultured cells. J. Cell Biol. 82 (1979) 475-84). Specifically, confluent Detroit 551 fibroblasts were incubated with D-[1,6-^3H(N)]glucosamine hydrochloride (10-μCi/mL). A conditioned medium was pooled, and the incubated cells were digested with pronase (0.3 mg/mL) and precipitated in ethanol. The formed pellets were suspended in water and re-precipitated with 1.5% cetylpyridinium chloride and 0.03M NaCl. The thus-formed pellets were dissolved in 0.1% cetylpyridinium chloride and 0.4M NaCl and re-precipitated again in ethanol. The thus-formed pellets were suspended in 5 mM phosphate buffer (pH: 7.5), and the suspension was applied to a Sepharose CL-2B column (10×600 mm) equilibrated with 0.5% NaCl. Vo fractions were collected, and the product was precipitated in ethanol. Finally, the product was dissolved in 5 mM phosphate buffer (pH: 7.5).
Cells were cultured in a medium containing [^3H]HA (40,000 dpm/mL) to confluent. After incubation, the medium was removed and applied to a Sepharose CL-2B column (10×600 mm). The medium was eluted with 0.5% NaCl at 0.65 mL/min, and fractions (each 2.55 mL) were collected. The radioactivity of each fraction was measured.
siRNAs (TT2 cohesive end, non-modified) each having 25 nucleotides with respect to KIAA1199, HYAL2, CD44, and a negative control were purchased from Invitrogen (Carlsbad, Calif.). Each siRNA was incorporated by use of Lipofectamine RNAiMAX (Invitrogen, Carlsbad, Calif.).

KIAA1199/HEK293 cells = test: Inhibitor experiment: [3H]HA decomposition in HEK293 cells stably expressing KIAA1199; type: cell-based, human; conditions: preliminary treatment with inhibitor 3 hours, then 6 hours with [3H]HA
Experimental: Cells were cultured in a medium containing [^3H]HA (40,000 dpm/mL) to confluent. […] The medium was eluted with 0.5% NaCl at 0.65 mL/min, and fractions (each 2.55 mL) were collected. The radioactivity of each fraction was measured.
Cells were cultured in a medium containing G418, and stable transformants were selected.
Cells were incubated for 3 hours with an inhibitor at a predetermined concentration and then incubated for 6 hours with [^3H]HA in the presence of the inhibitor.
In order to investigate the hyaluronic acid decomposition mechanism by the mediation of KIAA1199, HEK293 cells (KIAA1199/HEK293), in which KIAA1199 is consistently expressed, were established.

KIAA1199 mRNA [3] = test: Induction of KIAA1199 mRNA expression in cultured RA synovial cells; type: cell-based, human; conditions: inflammatory mediator added to cultured RA synovial cells
Experimental: Western blotting was performed through a standard method. In real-time PCR, total RNA was separated by use of RNeasy (Qiagen), and cDNA was synthesized by means of High Capacity cDNA Archive kit (Applied Biosystems, Foster City, Calif.).
Meanwhile, PGE2 (i.e., an inflammatory mediator) and several cytokines such as IL-1, IL-6, and TNF-α are present at high levels in synovial fluid of RA patients. Therefore, whether or not expression of KIAA1199 in RA synovial cells is induced by such an inflammatory mediator was investigated.

[4] = after stimulation with histamine

Molecule	decomposition of hyaluronic acid in KIAA1199/HEK293 cells (KIAA1199/HEK293 cells)	expression of KIAA1199 mRNA in RA synovial cells (KIAA1199 mRNA [3])	also measured
NCCc1c[nH]cn1 [histamine]			increase in expression level of KIAA1199 mRNA (KIAA1199 mRNA [1]): 3.7 times; Vmax of hyaluronic acid decomposition by cells [2, 4]: 1,370 μg/10^5 cells/3 days; apparent Km of hyaluronic acid decomposition by cells [2, 4]: 1,500 μg/mL; increase of Vmax of hyaluronic acid decomposition ([2]; after stimulation with histamine, versus unstimulated cells): 3.7 times; decomposition of hyaluronic acid by cultured fibroblasts [2]: up-regulated
CN(C)CCCN1c2ccccc2Sc2ccc(Cl)cc21 [chlorpromazine]	inhibited		
CC[C@@]1([C@@H]2O[C@@H]([C@H]3O[C@@](O)(CO)[C@H](C)C[C@@H]3C)C[C@@H]2C)CC[C@H]([C@]2(C)CC[C@]3(C[C@H](O)[C@@H](C)[C@@H]([C@@H](C)[C@@H](OC)[C@H](C)C(=O)O)O3)O2)O1 [monensin]	inhibited		
CCN1C(=O)C=CC1=O [N-ethylmaleimide]	inhibited		
heparin			decomposition of hyaluronic acid by cultured fibroblasts [2]: inhibited
CO/C1=C\C(C)=C\[C@@H](C)[C@@H](O)[C@@H](C)C/C(C)=C/C=C/[C@H](OC)[C@@H]([C@@H](C)[C@@H](O)[C@H](C)[C@@]2(O)C[C@@H](O)[C@H](C)[C@@H](C(C)C)O2)OC1=O [bafilomycin A1]	inhibited		
O=c1cc(-c2ccc(O)c(O)c2)oc2c([C@@H]3O[C@H](CO)[C@@H](O)[C@H](O)[C@H]3O)c(O)cc(O)c12 [orientin]	inhibited		
TGF-[3]: TGF-β1, down-regulates hyaluronic acid decomposition in fibroblasts			decomposition of hyaluronic acid by cultured fibroblasts [2]: down-regulated
CCCCC[C@H](O)/C=C/[C@H]1[C@H](O)CC(=O)[C@@H]1C/C=C\CCCC(=O)O [PGE2, prostaglandin E2]		stimulate expression	
O=C(O)CN(CCN(CC(=O)O)CC(=O)O)CC(=O)O [EDTA]	inhibited		
IL-β: cytokine, RA-related inflammatory mediator (probably IL-1β)		stimulate expression	
IL-6: cytokine, RA-related inflammatory mediator		stimulate expression	
IL-1α: cytokine, RA-related inflammatory mediator (protein, UniProt P01583 113-271, looked up) Interleukin-1 alpha: SAPFSFLSNVKYNFMRIIKYEFILNDALNQSIIRANDQYLTAAALHNLDEAVKFDMGAYKSSKDDAKITVILRISKTQLYVTAQDEDQPVLLKEMPEIPKTITGSETNLLFFWETHGTKNYFTSVAHPNLFIATKQDYWVCLAGGPPSITDFQILENQA		stimulate expression	

From US9056096B2, “Hyaluronic acid decomposition-promoting factor and inhibitor thereof” (Kao Corporation, priority 2010, dated 2015)
